{"source": "paper PMC2642729", "about": "“Interpain A, a Cysteine Proteinase from Prevotella intermedia, Inhibits Complement by Degrading Complement Factor C3” (PLoS Pathogens, 2009)", "biological_target": "T1, interpain A (InpA) (Prevotella intermedia, UniProt A9J7N5)", "T1 construct": "gene pin0048; full precursor 868 residues with 44-residue signal peptide; mature form 28 kDa (Val112-Pro359)", "T1 sequence (A9J7N5 entry or part of it)": "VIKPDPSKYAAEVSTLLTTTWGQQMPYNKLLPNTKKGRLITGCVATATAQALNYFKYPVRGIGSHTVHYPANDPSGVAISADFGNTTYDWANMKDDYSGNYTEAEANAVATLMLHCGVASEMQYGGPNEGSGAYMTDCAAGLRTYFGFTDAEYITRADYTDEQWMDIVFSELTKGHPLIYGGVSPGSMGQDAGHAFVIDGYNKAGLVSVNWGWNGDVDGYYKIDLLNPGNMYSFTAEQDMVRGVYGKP", "assay": "active-site titration; residual activity by AMC release from Boc-Val-Leu-Lys-AMC", "format": "biochemical", "conditions": "titrated to total inactivation; pH 7.5, 5 mM EDTA, 2 mM DTT; 37 min preincubation at room temperature; covalent active-site cysteine inhibitor (mode known, not given)"}
{"smiles": "CC(C)C[C@H](NC(=O)[C@H]1O[C@@H]1C(=O)O)C(=O)NCCCCNC(=N)N", "note": "[E64]", "values": [{"measurement": "active-site titration; residual activity by AMC release from Boc-Val-Leu-Lys-AMC", "value": "determined by active site titration using inhibitor E64 (Sigma)"}]}
